pIC50: −log10 of the molar value.
System: 624824-186-R-J3-PDC multicell spheroids, viability
Test: Anticancer human tumor 624824-186-R-J3-PDC patient-derived colon adenocarcinoma cell line growth inhibition [PI3K]
Details: for pIC50: curve of first compound; for viability, T/C: stronger effect = lower value
Procedure, shortened: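 Stroma-containing spheroids: tumor line, pooled-donor HUVEC, hMSC. Treatments: targeted agents with PI3K inhibitors. Dosing: clinically relevant, half-log spacing, 10 microM ceiling without known Cmax. Read-out: cell viability.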
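Note: spheroids exposed to agents for seven days before luminescence read.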
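Throughout, for viability, T/C: luminescent signal used as a stand-in for spheroid viability; percent viability relative to DMSO vehicle control wells taken as 100%.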

pIC50 (second compound 0.0316 µM): < 5.00
pIC50 (second compound 0.1 µM): < 5.00
pIC50 (second compound 0.316 µM): < 5.00
pIC50 (second compound 1 µM): < 5.00
pIC50 (second compound 3.16 µM): < 5.00
pIC50 (second compound 10 µM): < 5.00
Structure (SMILES): CC(Cn1ccc(-c2ccc(C#N)c(Cl)c2)n1)NC(=O)c1cc(C(C)O)[nH]n1 (configuration not stated) + CC(Nc1ncnc2nc[nH]c12)c1cc2cccc(Cl)c2c(=O)n1-c1ccccc1
viability, T/C (second compound 0.0316 µM, first compound 0.0316 µM): 104%
viability, T/C (second compound 0.0316 µM, first compound 0.1 µM): 97%
viability, T/C (second compound 0.0316 µM, first compound 0.316 µM): 98.8%
viability, T/C (second compound 0.0316 µM, first compound 1 µM): 99.6%
viability, T/C (second compound 0.0316 µM, first compound 3.16 µM): 105%
viability, T/C (second compound 0.0316 µM, first compound 10 µM): 109%
viability, T/C (second compound 0.1 µM, first compound 0.0316 µM): 104%
viability, T/C (second compound 0.1 µM, first compound 0.1 µM): 102%
viability, T/C (second compound 0.1 µM, first compound 0.316 µM): 95.3%
viability, T/C (second compound 0.1 µM, first compound 1 µM): 104%
viability, T/C (second compound 0.1 µM, first compound 3.16 µM): 108%
viability, T/C (second compound 0.1 µM, first compound 10 µM): 97.7%
viability, T/C (second compound 0.316 µM, first compound 0.0316 µM): 103%
viability, T/C (second compound 0.316 µM, first compound 0.1 µM): 103%
viability, T/C (second compound 0.316 µM, first compound 0.316 µM): 103%
viability, T/C (second compound 0.316 µM, first compound 1 µM): 104%
viability, T/C (second compound 0.316 µM, first compound 3.16 µM): 115%
viability, T/C (second compound 0.316 µM, first compound 10 µM): 117%
viability, T/C (second compound 1 µM, first compound 0.0316 µM): 102%
viability, T/C (second compound 1 µM, first compound 0.1 µM): 111%
viability, T/C (second compound 1 µM, first compound 0.316 µM): 100%
viability, T/C (second compound 1 µM, first compound 1 µM): 115%
viability, T/C (second compound 1 µM, first compound 3.16 µM): 99.6%
viability, T/C (second compound 1 µM, first compound 10 µM): 113%
viability, T/C (second compound 3.16 µM, first compound 0.0316 µM): 96.3%
viability, T/C (second compound 3.16 µM, first compound 0.1 µM): 101%
viability, T/C (second compound 3.16 µM, first compound 0.316 µM): 112%
viability, T/C (second compound 3.16 µM, first compound 1 µM): 97.1%
viability, T/C (second compound 3.16 µM, first compound 3.16 µM): 109%
viability, T/C (second compound 3.16 µM, first compound 10 µM): 104%
viability, T/C (second compound 10 µM, first compound 0.0316 µM): 93.2%
viability, T/C (second compound 10 µM, first compound 0.1 µM): 99%
viability, T/C (second compound 10 µM, first compound 0.316 µM): 94.2%
viability, T/C (second compound 10 µM, first compound 1 µM): 88.2%
viability, T/C (second compound 10 µM, first compound 3.16 µM): 91.8%
viability, T/C (second compound 10 µM, first compound 10 µM): 95.6%

— PubChem BioAssay AID1963977 (Molecular Pharmacology Branch, DTP, NCI, 2024)
